Source: paper PMC3569853 (European journal of medicinal chemistry, 2012)
Where two headings read alike, the source gives them in different places.

Assays:
[1] = molecular target: T1, μ-opioid receptor (hMOR-CHO cells) (Homo sapiens, UniProt P35372); assay: biochemical; assay type: binding
[2] = molecular target: δ-opioid receptor (hDOR-CHO cells) (Homo sapiens, UniProt P41143); assay: Opioid receptor binding assay, δ; settings: for δ~ μ: selectivity ratio Ki δ / Ki μ
[3] = molecular target: κ-opioid receptor (hKOR-CHO cells) (Homo sapiens, UniProt P41145); assay: Opioid receptor binding assay, κ; settings: for Ki: [3H]-U69,593, CHO hKOR cells, full binding assay, ±SD; for κ/μ: selectivity ratio Ki κ / Ki μ
κ-opioid receptor (hKOR-CHO cells), sequence (P41145 whole entry): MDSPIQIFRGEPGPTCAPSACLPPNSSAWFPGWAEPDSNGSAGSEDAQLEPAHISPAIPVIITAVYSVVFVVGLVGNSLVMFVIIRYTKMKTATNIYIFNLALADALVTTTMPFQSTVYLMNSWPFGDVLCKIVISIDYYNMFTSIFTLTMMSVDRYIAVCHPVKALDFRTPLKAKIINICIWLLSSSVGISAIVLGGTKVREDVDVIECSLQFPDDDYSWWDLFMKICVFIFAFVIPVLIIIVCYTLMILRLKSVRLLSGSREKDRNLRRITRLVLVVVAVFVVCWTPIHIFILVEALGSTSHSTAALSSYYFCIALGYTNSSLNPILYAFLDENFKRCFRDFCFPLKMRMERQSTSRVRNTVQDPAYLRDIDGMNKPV

[4] = molecular target: T1, μ-opioid receptor (hMOR-CHO cells); assay: biochemical
[5] = molecular target: T1, μ-opioid receptor (hMOR-CHO cells); assay: Initial binding screen, estimated Ki; settings: read-out: estimated Ki (μ)
[6] = read-out: Ki δ, [3H]-DADLE, CHO hDOR cells, full binding assay, ±SD

T1 sequence (P35372 whole entry): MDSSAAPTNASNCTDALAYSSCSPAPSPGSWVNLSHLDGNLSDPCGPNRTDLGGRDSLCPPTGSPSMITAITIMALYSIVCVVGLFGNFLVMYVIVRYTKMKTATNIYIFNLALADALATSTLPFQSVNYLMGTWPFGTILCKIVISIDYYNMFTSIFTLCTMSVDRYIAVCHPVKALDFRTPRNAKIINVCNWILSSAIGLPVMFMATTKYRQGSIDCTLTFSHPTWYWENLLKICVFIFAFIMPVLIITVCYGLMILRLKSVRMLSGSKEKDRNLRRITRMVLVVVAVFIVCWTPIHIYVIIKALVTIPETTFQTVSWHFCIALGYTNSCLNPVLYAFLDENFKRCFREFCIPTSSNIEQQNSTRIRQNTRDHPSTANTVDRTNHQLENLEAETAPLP
δ-opioid receptor (hDOR-CHO cells), sequence (P41143 whole entry): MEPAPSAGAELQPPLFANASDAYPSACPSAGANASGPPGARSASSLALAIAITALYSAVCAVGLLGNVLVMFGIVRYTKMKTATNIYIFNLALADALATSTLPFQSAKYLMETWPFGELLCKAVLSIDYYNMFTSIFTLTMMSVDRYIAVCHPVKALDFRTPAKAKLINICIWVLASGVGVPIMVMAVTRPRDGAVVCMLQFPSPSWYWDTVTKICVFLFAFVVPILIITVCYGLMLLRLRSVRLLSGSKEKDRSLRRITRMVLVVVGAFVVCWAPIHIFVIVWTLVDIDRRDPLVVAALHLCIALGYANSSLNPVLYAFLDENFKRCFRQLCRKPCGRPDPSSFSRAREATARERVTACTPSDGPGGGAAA

Compound	Ki ([1]; Ki μ) [nM]	Ki [2] [nM]	δ~ μ [2]	Ki ([3]; Ki κ) [nM]	κ/μ [3]	Kb [4] [nM]	potency estimated from few doses [5] [nM]	Ki ([1]; read-out: Ki μ) [nM]	Ki [2, 6] [nM]	Ki ([3]; read-out: Ki κ) [nM]	Ke μ [4] [nM]
Oc1ccc2c(c1)C13CCCC(C1CC2)N(CCc1ccccc1)CC3 (stereo not drawn) [Compound 24, 13-phenethyl-2,3,4,9,10,10a-hexahydro-1H-1,4a-(epiminoethano)phenanthren-6-ol]	2.3 ± 0.2	186 ± 25	81	61 ± 6	27	0.71 ± 0.13	–	–	–	–	–
CN1CCC23CCCC1C2C=Cc1ccc(O)cc13 (stereo not drawn) [Compound 20, 13-methyl-2,3,4,10a-tetrahydro-1H-1,4a-(epiminoethano)phenanthren-6-ol]	57 ± 6	> 10000	175	4040 ± 363	71	–	67	–	–	–	–
13-phenethyl-2,3,4,9,10,10a-hexahydro-1H-1,4a-(epiminoethano)-phenanthrene-8,9α-diol [Compound 12]	–	–	714	–	38	–	–	14 ± 2	> 10000	525 ± 39	6 ± 1
13-phenethyl-2,3,4,9,10,10a-hexahydro-1H-1,4a-(epiminoethano)phenanthrene-8,9β-diol [Compound 13]	–	–	56	–	5	–	–	–	> 10000	923 ± 32	–
13-methyl-2,3,4,9,10,10a-hexahydro-1H-1,4a-(epiminoethano)-phenanthrene-8,9α-diol [Compound 10]	–	–	107	–	–	–	–	30 ± 6	3220 ± 332	2020 ± 169	706 ± 135
O=C1CC2C3CCCC2(CCN3CCc2ccccc2)c2cc(O)ccc21 (stereo not drawn) [Compound 18, 6-hydroxy-13-phenethyl-3,4,10,10a-tetrahydro-1H-1,4a-(epiminoethano)phenanthren-9(2H)-one]	–	–	–	–	–	–	80	–	–	–	–
O=C1CC2C3CCCC2(CCN3CCc2ccccc2)c2cccc(O)c21 (stereo not drawn) [Compound 9, 8-hydroxy-13-phenethyl-3,4,10,10a-tetrahydro-1H-1,4a-(epiminoethano)phenanthren-9(2H)-one]	–	–	–	–	–	–	297	–	–	–	–
CN1CCC23CCCC1C2C=Cc1c(O)cccc13 (stereo not drawn) [Compound 14, 13-methyl-2,3,4,10a-tetrahydro-1H-1,4a-(epiminoethano)phenanthren-8-ol]	67 ± 7	> 10000	149	3890 ± 441	58	–	–	–	–	–	–
13-phenethyl-2,3,4,9,10,10a-hexahydro-1H-1,4a-(epiminoethano)-phenanthrene-6,9α-diol [Compound 22]	–	–	139	–	25	–	–	72 ± 10	> 10000	1810 ± 95	–
Oc1ccc2c(c1)C13CCCC(C1C=C2)N(CCc1ccccc1)CC3 (stereo not drawn) [Compound 23, 13-phenethyl-2,3,4,10a-tetrahydro-1H-1,4a-(epiminoethano)phenanthren-6-ol]	2.6 ± 0.35	127 ± 31	49	51 ± 4	20	0.34 ± 0.07	–	–	–	–	–
Oc1cccc2c1CCC1C3CCCC21CCN3CCc1ccccc1 (stereo not drawn) [Compound 17, 13-phenethyl-2,3,4,9,10,10a-hexahydro-1H-1,4a-(epiminoethano)phenanthrene-8-ol]	21 ± 5	2830 ± 223	135	873 ± 101	42	7 ± 1.8	–	–	–	–	–
Oc1cccc2c1C=CC1C3CCCC21CCN3CCc1ccccc1 (stereo not drawn) [Compound 16, 13-phenethyl-2,3,4,10a-tetrahydro-1H-1,4a-(epiminoethano)phenanthren-8-ol]	19 ± 4	1840 ± 212	97	369 ± 26	19	1.7 ± 0.26	–	–	–	–	–
